Data on nine compounds can be found in PubChem BioAssay (NCI).

Molecules are shown by their SMILES.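 Interpolation was linear, between the two tested concentrations surrounding the appropriate level; five concentrations were tested over 48 hours in 96-well plates. Abbreviation: GI50, concentration required for 50% inhibition of growth. The concentration for full growth arrest is given as TGI.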

Test systems include 786-0 renal; SK-MEL-2 melanoma; M14 melanoma; MCF7 breast; HOP-92 NSCLC; HCT-15 colon; MDA-MB-435; T-47D breast; MOLT-4 leukemia; PC-3 prostate.
What all share (assay): inhibition of tumour cell growth, NCI panel, 48 h

Take `Cc1ccc2c(c1)nc(C(=O)c1ccco1)c(C(F)(F)F)[n+]2[O-]`: the GI50 in the experiment with 786-0 renal is above 100 µM; in the experiment with SK-MEL-2 melanoma, above 100 µM; with M14 melanoma, above 100 µM; in the experiment with MCF7 breast it was above 100 µM; in the experiment with HOP-92 NSCLC it was 40.1 µM; in the experiment on HCT-15 colon it was above 100 µM. Further, the GI50 was above 100 µM in the experiment on MDA-MB-435, 50.3 µM with T-47D breast, above 100 µM in the experiment with MOLT-4 leukemia and 50.2 µM in the experiment with PC-3 prostate. Moreover, the TGI with 786-0 renal, in the experiment with SK-MEL-2 melanoma, with M14 melanoma, in the experiment on MCF7 breast, with HOP-92 NSCLC and with HCT-15 colon was above 100 µM throughout. Also, the TGI with MDA-MB-435, with T-47D breast, in the experiment on MOLT-4 leukemia and in the experiment on PC-3 prostate was above 100 µM each time.
`C/C(=N/S(=O)(=O)c1ccc(Cl)c(Cl)c1)OCC(C)(C)C`: the TGI with 786-0 renal, in the experiment on SK-MEL-2 melanoma, in the experiment on M14 melanoma, with MCF7 breast, in the experiment with HOP-92 NSCLC and with HCT-15 colon was above 100 µM throughout. The TGI in the experiment with MDA-MB-435, with T-47D breast, in the experiment with MOLT-4 leukemia and in the experiment with PC-3 prostate was above 100 µM throughout.
For `Oc1ccc(/C=N\Nc2ccccn2)c(O)c1`, the GI50 was 1.53 µM with 786-0 renal; 9.43 µM in the experiment with SK-MEL-2 melanoma; 1.76 µM in the experiment with MCF7 breast; 5.02 µM with HOP-92 NSCLC; 0.533 µM with HCT-15 colon; 1.37 µM in the experiment on MDA-MB-435. Also, the GI50 was 2.41 µM with T-47D breast, 0.382 µM with MOLT-4 leukemia and 4.56 µM in the experiment with PC-3 prostate. Besides, the TGI in the experiment on 786-0 renal was above 100 µM; with SK-MEL-2 melanoma it was above 100 µM; with MCF7 breast, 11 µM; in the experiment on HOP-92 NSCLC, above 100 µM; with HCT-15 colon, above 100 µM; in the experiment with MDA-MB-435, above 100 µM. Moreover, the TGI is above 100 µM with T-47D breast, 10.6 µM with MOLT-4 leukemia and above 100 µM in the experiment on PC-3 prostate.
For `Cc1ccc(C(CN(C)C)C(=O)c2ccccc2)cc1` (stereo unspecified), the GI50 with 786-0 renal was 2.12 µM; in the experiment with SK-MEL-2 melanoma it was 4.45 µM; in the experiment on M14 melanoma, 1.91 µM; in the experiment with HOP-92 NSCLC, 2.07 µM; in the experiment on HCT-15 colon, 1.7 µM; in the experiment on MDA-MB-435 it was 2.45 µM. Besides, the GI50 in the experiment on T-47D breast was 2.35 µM; in the experiment on MOLT-4 leukemia it was 1.68 µM; with PC-3 prostate it was 1.84 µM. For the same compound, the TGI amounted to 4 µM in the experiment with 786-0 renal; 15.8 µM with SK-MEL-2 melanoma; 4.35 µM in the experiment on M14 melanoma; 5.38 µM in the experiment with HOP-92 NSCLC; 4.21 µM in the experiment with HCT-15 colon; 8.92 µM with MDA-MB-435. The TGI in the experiment on T-47D breast came out at 12.7 µM; with MOLT-4 leukemia, 5.75 µM; in the experiment with PC-3 prostate, 4.36 µM.
As for `COc1cc(Nc2nc3cc(N)cc(N)c3nc2-c2ccccc2)cc(OC)c1`, the GI50 with 786-0 renal is 17.7 µM; in the experiment on SK-MEL-2 melanoma, 12 µM; with M14 melanoma, 14.2 µM; in the experiment on MCF7 breast it was 7.86 µM; with HCT-15 colon it was 20 µM; in the experiment on MDA-MB-435, 11.5 µM. Also, the GI50 with T-47D breast is 4.44 µM; in the experiment on PC-3 prostate, 1.96 µM. The TGI in the experiment with 786-0 renal was 50.8 µM; in the experiment on SK-MEL-2 melanoma it was 63.8 µM; in the experiment on M14 melanoma it was 34.8 µM; with MCF7 breast, 27.1 µM; in the experiment with HCT-15 colon, above 100 µM; with MDA-MB-435 it was 23.8 µM. Further, the TGI in the experiment with T-47D breast is 23 µM; with PC-3 prostate, 10.9 µM.
`O=C(O)c1ccc2c(c1)Cc1cc([N+](=O)[O-])ccc1-2`: the TGI in the experiment on 786-0 renal, in the experiment on SK-MEL-2 melanoma, in the experiment with M14 melanoma, with MCF7 breast, with HOP-92 NSCLC and with HCT-15 colon was above 100 µM throughout. Also, the TGI in the experiment with MDA-MB-435, in the experiment with T-47D breast and in the experiment with MOLT-4 leukemia was above 100 µM in each case.
For the compound `O=c1c2ccccc2c2ccccc2c(=O)n1-c1cc2c3ccccc3ccc2c2ccccc12`, the TGI in the experiment on 786-0 renal, in the experiment on SK-MEL-2 melanoma, in the experiment with M14 melanoma, in the experiment with MCF7 breast, with HOP-92 NSCLC and in the experiment on HCT-15 colon was above 100 µM throughout. Moreover, the TGI in the experiment on MDA-MB-435, with T-47D breast and in the experiment with PC-3 prostate was above 100 µM throughout.
Consider `COCCn1cc(-c2csc(-c3c[nH]c4ccccc34)n2)c2cccnc21`, for which the GI50 in the experiment with 786-0 renal was 6.25 µM; in the experiment with SK-MEL-2 melanoma, 7.38 µM; in the experiment with M14 melanoma it was 3.22 µM; in the experiment with MCF7 breast, 1.74 µM; in the experiment with HOP-92 NSCLC it was 14.9 µM; with HCT-15 colon, 2.34 µM. Besides, the GI50 was 0.863 µM in the experiment with MDA-MB-435, 0.418 µM in the experiment with T-47D breast and 6.81 µM in the experiment on PC-3 prostate. Moreover, the TGI in the experiment with 786-0 renal, in the experiment with SK-MEL-2 melanoma, in the experiment with M14 melanoma, in the experiment with MCF7 breast, in the experiment on HOP-92 NSCLC and with HCT-15 colon was above 100 µM in each case. Moreover, the TGI with MDA-MB-435 was 5.25 µM; with T-47D breast it was above 100 µM; in the experiment on PC-3 prostate, above 100 µM.
Turning to `Cc1c(C#N)cccc1-c1cc(-c2cn(Cc3cccc(C(C)(C)O)n3)nn2)nc(N)n1`, the GI50 is 32 µM in the experiment on 786-0 renal; 21.3 µM with SK-MEL-2 melanoma; 21.7 µM with M14 melanoma; 22.4 µM in the experiment with MCF7 breast; 23.2 µM in the experiment with HCT-15 colon; 26.8 µM in the experiment on MDA-MB-435. The GI50 in the experiment with T-47D breast is 6.9 µM; in the experiment on MOLT-4 leukemia it was 21.3 µM; with PC-3 prostate, 17.7 µM. Further, the TGI in the experiment with 786-0 renal is above 100 µM; in the experiment with SK-MEL-2 melanoma, 79.3 µM; in the experiment on M14 melanoma, above 100 µM; with MCF7 breast, above 100 µM; in the experiment with HCT-15 colon, above 100 µM; with MDA-MB-435 it was above 100 µM. In addition, the TGI with T-47D breast was 62.5 µM; in the experiment with MOLT-4 leukemia it was above 100 µM; with PC-3 prostate, 87.5 µM.
